Entries after “also recorded” stand apart in the source; their conditions may differ.
How the values were obtained:
Format in all cases: in vivo, mouse
[1] = system: HCT-116 MTAP-deleted tumors; test: Efficacy of Compound A and Compound B in HCT-116 MTAP-deleted xenografts (Example 5); conditions: for TGI (%) / Final TV (mean): Day 21; for Final TV (mean): initial TV 224
Description: (§1) The effect of Compound A and Compound B (HCl salt was used) as single-agent anti-tumor agents and in combination was assessed in the HCT-116 human colon tumor cell line, MTAP isogenic pair (MTAP proficient (WT) or MTAP-deleted). Cells were expanded in DMEM/F12 GlutaMAX (Fisher Scientific, Catalog Number 10-565-018) with 10% fetal bovine serum. These cells were free of mycoplasma and authenticated as HCT-116 by STR profiling. Two and a half million cells in log growth phase were resuspended in Hanks Balanced Salt Solution containing 50% Matrigel and implanted subcutaneously into the flank of each recipient female nu/nu mouse. Mice were housed in microisolator cages with corn cob bedding with additional enrichment consisting of sterile nesting material (Innovive) and Bio-huts (Bio-Serv). Water (Innovive) and diet (Teklad Global 19% Protein Extruded Diet 2919, Irradiated) were provided ad libitum. The environment was maintained on a 12-hour light cycle at approximately 68-72° F. and 40-60% relative humidity.
(§2) Tumor Volume (TV) was calculated using the following formula: TV (mm^3)=(width×width×length)/2. No dose holidays were provided for during the study and all mice were euthanized following the final dose on Day 21 (MTAP-deleted) or Day 15 (MTAP WT). Tumor growth inhibition (TGI) was calculated by [(TV controlfinal−TV treatedfinal)/(TV controlfinal−TV controlinitial)×100]. A TGI greater than 100% indicates tumor regressions. TV was analyzed for statistical significance utilizing GraphPad Prism version 9.1.0. Repeated Measures 2-Way ANOVA with Tukey's Multiple Comparisons was utilized, and P-values were presented from the final tumor measurement and were considered statistically significant if less than 0.05.
(§3) Mean tumor volume at dosing start was approximately 224 mm^3, with seven mice randomized to each treatment group. In the HCT-116 MTAP-deleted tumor model, mice were dosed orally, twice per day (BID) with Vehicle, once per day (QD) with Compound A at 1 or 3 mg/kg, or BID with Compound B at 3, 10, or 30 mg/kg, or Compound A combined with Compound B at each dose level. In the HCT-116 WT tumor model, mice were dosed orally, with BID Vehicle, QD with Compound A at 3 mg/kg, or BID with Compound B at 10 or 30 mg/kg, or Compound A combined with Compound B. The Vehicle was 0.5% 400 cps methylcellulose with 0.5% Tween-80 in sterile water.

[2] = system: HCT-116 MTAP WT tumors; test: Efficacy of Compound A and Compound B in HCT-116 MTAP WT xenografts (Example 5); conditions: for TGI (%) / Final TV (mean): Day 15; for Final TV (mean): initial TV 228
Description: as §1, §2, §3

[3] = system: NCI-H838 MTAP-deleted xenografts; test: Efficacy of Compound A and Compound B in NCI-H838 NSCLC xenograft (Example 6); conditions: for TGI (%): Study Day 25; for Final TV (mean): initial TV 140
Description: (§4) The effect of Compound A and Compound B (HCl salt was used) as single-agent anti-tumor agents and in combination was assessed in the NCI-H838 human NSCLC tumor cell line, an endogenously MTAP-deleted cell line. Cells were expanded in RPMI with 10% fetal bovine serum. These cells were free of mycoplasma and authenticated by STR profiling. Ten million cells in log growth phase were resuspended in RPMI-1640 containing 50% Matrigel and implanted subcutaneously into the flank of each recipient female BALB/c nude mouse. The mice were be kept in laminar flow rooms at constant temperature and humidity with 3-5 mice in each cage. Animals were housed in polycarbonate cages maintained at a temperature of 23±3° C. and a relative humidity of 40% to 70%. The bedding material was soft wood, which was changed once per week. Water and diet were provided ad libitum.
as §2, with “the study.” for “the study and all mice were euthanized following the final dose on Day 21 (MTAP-deleted) or Day 15 (MTAP WT).”, “the Study Day 25” for “the final”
(§5) Mean tumor volume at dosing start was approximately 140 mm^3, with ten mice randomized to each treatment group, with the study consisting of eight treatment groups. Mice were dosed orally, twice per day (BID) with Vehicle, once per day (QD) with Compound A at 3 mg/kg, or BID with Compound B at 1, 10, or 30 mg/kg, or Compound A combined with Compound B at each dose level. The Vehicle was 0.5% 400 cps methylcellulose with 0.5% Tween-80 in sterile water.

[4] = system: LU99 MTAP-deleted xenografts; test: Efficacy of Compound A and Compound B in LU99 NSCLC xenograft (Example 7); conditions: for TGI (%) / Final TV (mean): Study Day 21
Description: as §4, with “JCRB LU99” for “NCI-H838”
as §2, with “study.” for “study and all mice were euthanized following the final dose on Day 21 (MTAP-deleted) or Day 15 (MTAP WT).”, “measurement on Study Day 21” for “measurement”
as §5, with “141” for “140”

[5] = HCT-116 MTAP WT model, over the dose levels tested

Cn1ncc(-c2ccc3c(=O)[nH]nc(CN)c3c2)c1-c1c(F)cc2ccccc2c1C#N (atropisomer, axis not shown) [Compound B]
TGI (%) ([1]; Compound B 3 mg/kg BID orally): 29% | Final TV (mean) ([1]; Compound B 3 mg/kg BID orally): 1015 mm^3 | TGI (%) ([1]; Compound B 10 mg/kg BID orally): 49% | Final TV (mean) ([1]; Compound B 10 mg/kg BID orally): 794 mm^3 | TGI (%) ([1]; Compound B 30 mg/kg BID orally): 83% | Final TV (mean) ([1]; Compound B 30 mg/kg BID orally): 420 mm^3 | anti-tumor activity (in words) ([2]; Compound B 10 mg/kg BID): significantly enhanced tumor growth | TGI (%) ([2]; Compound B 10 mg/kg BID orally): −52% | Final TV (mean) ([2]; Compound B 10 mg/kg BID orally): 1596 mm^3 | TGI (%) ([2]; Compound B 30 mg/kg BID orally): −27% | Final TV (mean) ([2]; Compound B 30 mg/kg BID orally): 1372 mm^3 | anti-tumor activity (in words) [2, 5]: no single agent activity | TGI (%) ([3]; Compound B 1 mg/kg BID orally): 53% | Final TV (mean) ([3]; Compound B 1 mg/kg BID orally): 899 mm^3 | TGI (%) ([3]; Compound B 10 mg/kg BID orally): 56% | Final TV (mean) ([3]; Compound B 10 mg/kg BID orally): 839 mm^3 | TGI (%) ([3]; Compound B 30 mg/kg BID orally): 67% | Final TV (mean) ([3]; Compound B 30 mg/kg BID orally): 666 mm^3 | TGI (%) ([4]; Compound B 1 mg/kg BID orally): 23% | Final TV (mean) ([4]; Compound B 1 mg/kg BID orally, initial TV 142): 1765 mm^3 | TGI (%) ([4]; Compound B 10 mg/kg BID orally): 74% | Final TV (mean) ([4]; Compound B 10 mg/kg BID orally, initial TV 142): 683 mm^3 | TGI (%) ([4]; Compound B 30 mg/kg BID orally): 90% | Final TV (mean) ([4]; Compound B 30 mg/kg BID orally, initial TV 141): 353 mm^3

Nc1nc(=O)n(-c2ccccc2Cl)c2nc(C(F)(F)F)ccc12 [Compound A]
TGI (%) ([1]; Compound A 1 mg/kg QD orally): 64% | Final TV (mean) ([1]; Compound A 1 mg/kg QD orally): 632 mm^3 | TGI (%) ([1]; Compound A 3 mg/kg QD orally): 80% | Final TV (mean) ([1]; Compound A 3 mg/kg QD orally): 450 mm^3 | anti-tumor activity (in words) ([1]; HCT-116 MTAP-deleted model, over the dose levels tested): statistically significant anti-tumor activity | TGI (%) ([2]; Compound A 3 mg/kg QD orally): −9% | Final TV (mean) ([2]; Compound A 3 mg/kg QD orally): 1211 mm^3 | anti-tumor activity (in words) [2, 5]: no tumor growth inhibition; also recorded: no single agent activity | TGI (%) ([3]; Compound A 3 mg/kg QD orally): 79% | Final TV (mean) ([3]; Compound A 3 mg/kg QD orally): 478 mm^3 | anti-tumor activity (in words) ([3]; NCI-H838 model, over the dose levels tested): statistically significant anti-tumor activity | TGI (%) ([4]; Compound A 3 mg/kg QD orally): 43% | Final TV (mean) ([4]; Compound A 3 mg/kg QD orally, initial TV 142): 1341 mm^3 | anti-tumor activity (in words) ([4]; LU99 model, over the dose levels tested): statistically significant anti-tumor activity
